Laboratory results reported in patent publication US20240101541A1 (priority 2020, published 2024).

Key:
SARS-CoV-2 3CLpro = SARS-CoV-2 3CLpro (Severe acute respiratory syndrome coronavirus 2, UniProt P0DTD1); experiment: biochemical
SARS-CoV-2 = experiment: microbe, parasite or virus in culture; assay type: cell-based; settings: Severe acute respiratory syndrome coronavirus 2, read-out: Antiviral EC50

Row | SMILES | IC50 (SARS-CoV-2 3CLpro) [µM] | EC50 (SARS-CoV-2) [µM]
1 | O=C(Cn1nnc2ccccc21)N(Cc1ccc(-c2ccccc2)cc1)Cc1ccsc1 | > 100 | 5 to 50
2 | O=C(Cn1ccc2ccccc21)N(Cc1ccsc1)c1ccc(-c2ccccc2)cc1 | > 100 | > 100
3 | O=C(Cn1nnc2ccccc21)N(Cc1ccsc1)c1ccc(-c2ccccc2)cc1 |  | 50 to 100
4 | O=C(Cn1nnc2ccccc21)N(Cc1ccc(-c2ccccn2)cc1)Cc1ccsc1 | 50 to 100 | > 100
